In patent US20150105252A1, “SUBSTITUTED PYRAZOLES AS HERBICIDES” (E I DU PONT DE NEMOURS AND COMPANY, priority 2013, published 2015):

Columns and labels:
foxtail, giant [1] = experiment: Test A postemergence; type: in vivo, Setaria faberii
Outline: (§1)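 Ratings express plant response from 0 (no effect) to 100 (complete control), judged visually against untreated controls after approximately 10 days in the greenhouse. Preemergence applications were made as directed soil sprays onto seeded loam–sand mix, and postemergence applications onto 2–10 cm plants at one- to two-leaf stage.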

blackgrass = experiment: Test C postemergence; type: in vivo, Alopecurus myosuroides; settings: for Plant response rating (scale of 0 to 100 where 0 is no effect and 100 is complete control), Blackgrass: Postemergence, 31 g ai/ha, visually evaluated after 13 to 15 days; for Blackgrass plant response rating / Plant response rating, Blackgrass: postemergence; for Blackgrass plant response rating: 62 g ai/ha, scale 0 to 100
Outline: (§2)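 Seeds were sown in a loam soil–sand blend and sprayed preemergence with compounds formulated in a non-phytotoxic solvent mixture containing surfactant. Postemergence plants, grown in peat/vermiculite medium to 2–18 cm (1- to 4-leaf stage), received the same formulation. After 13 to 15 days in a greenhouse, injury was rated visually against controls (0 = no effect, 100 = complete control).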

corn = experiment: Test C preemergence; type: in vivo, Zea mays; settings: for Plant response rating (scale of 0 to 100), Corn: Preemergence, 250 g ai/ha; for Corn plant response rating / Plant response rating, Corn: preemergence; for Plant response rating, Corn: scale 0 to 100, 0 = no effect, 100 = complete control
Outline: as §2

velvetleaf = experiment: Test A preemergence; type: in vivo, Abutilon theophrasti; settings: preemergence
Outline: as §1

waterhemp = experiment: Test C postemergence; type: in vivo, Amaranthus rudis; settings: for Plant response rating (scale of 0 to 100 where 0 is no effect and 100 is complete control), Waterhemp: Postemergence, 31 g ai/ha, visually evaluated after 13 to 15 days; for Waterhemp plant response rating / Plant response rating, Waterhemp: postemergence; for Waterhemp plant response rating: 62 g ai/ha, scale 0 to 100
Outline: as §2

crabgrass, large [2] = experiment: Test C postemergence; type: in vivo, Digitaria sanguinalis; settings: for Plant response rating (scale of 0 to 100 where 0 is no effect and 100 is complete control), Crabgrass, Large: Postemergence, 31 g ai/ha, visually evaluated after 13 to 15 days; for Crabgrass, Large plant response rating / Plant response rating, Crabgrass, Large: postemergence; for Crabgrass, Large plant response rating: 62 g ai/ha, scale 0 to 100
Outline: as §2

wheat [3] = experiment: Test A preemergence; type: in vivo, Triticum aestivum; settings: preemergence
Outline: as §1

crabgrass, large [4] = experiment: Test A preemergence; type: in vivo, Digitaria sanguinalis; settings: preemergence
Outline: as §1

ragweed = experiment: Test C preemergence; type: in vivo, Ambrosia elation; settings: for Plant response rating (scale of 0 to 100), Ragweed: Preemergence, 250 g ai/ha; for Ragweed plant response rating / Plant response rating, Ragweed: preemergence; for Plant response rating, Ragweed: scale 0 to 100, 0 = no effect, 100 = complete control
Outline: as §2

johnsongrass = experiment: Test C preemergence; type: in vivo, Sorghum halepense; settings: for Plant response rating (scale of 0 to 100), Johnsongrass: Preemergence, 250 g ai/ha; for Johnsongrass plant response rating / Plant response rating, Johnsongrass: preemergence; for Plant response rating, Johnsongrass: scale 0 to 100, 0 = no effect, 100 = complete control
Outline: as §2

foxtail, giant [5] = experiment: Test C postemergence; type: in vivo, Setaria faberii; settings: for Plant response rating (scale of 0 to 100 where 0 is no effect and 100 is complete control), Foxtail, Giant: Postemergence, 31 g ai/ha, visually evaluated after 13 to 15 days; for Foxtail, Giant plant response rating / Plant response rating, Foxtail, Giant: postemergence; for Foxtail, Giant plant response rating: 62 g ai/ha, scale 0 to 100
Outline: as §2

sedge, umbrella = experiment: Test B flood; type: in vivo, Cyperus difformis; settings: 250 g ai/ha, visual rating on 0 to 100 scale (0 no effect, 100 complete control), 13 to 15 days
Outline: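 Flooded-pot test: compound dosed into 3 cm of standing water above soil when plants had two leaves. Visual control ratings (0–100) versus untreated plants after 13–15 d.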

wheat [6] = experiment: Test C preemergence; type: in vivo, Triticum aestivum; settings: for Plant response rating (scale of 0 to 100), Wheat: Preemergence, 250 g ai/ha; for Wheat plant response rating / Plant response rating, Wheat: preemergence; for Plant response rating, Wheat: scale 0 to 100, 0 = no effect, 100 = complete control
Outline: as §2

[7] = postemergence, 125 g ai/ha, about 10 days, visual rating on 0 to 100 scale (0 no effect, 100 complete control)
[8] = 250 g ai/ha, scale 0 to 100 (0 no effect, 100 complete control)
[9] = 125 g ai/ha, scale 0 to 100, 0 no effect, 100 complete control
[10] = 31 g ai/ha, visual rating, scale 0 to 100 (0 no effect, 100 complete control), 13 to 15 days
[11] = 62 g ai/ha, scale 0 to 100 (0 no effect, 100 complete control), 13 to 15 days
[12] = 125 g ai/ha, scale 0 to 100, 0 is no effect, 100 is complete control
[13] = 125 g ai/ha, visual injury, 0 to 100 scale, approx. 10 days
[14] = 500 g ai/ha, visual injury after approx. 10 days, 0 to 100 scale (0 no effect, 100 complete control)
[15] = Postemergence, 500 g ai/ha, 0 to 100 scale (0 no effect, 100 complete control)

| SMILES | Foxtail, Giant plant response rating (foxtail, giant [1]; [7]) | Plant response rating (scale of 0 to 100 where 0 is no effect and 100 is complete control), Blackgrass (blackgrass) | Blackgrass plant response rating (blackgrass) | Plant response rating, Blackgrass (blackgrass; [8]) | Plant response rating, Blackgrass (blackgrass; [9]) | Plant response rating (scale of 0 to 100), Corn (corn) | Corn plant response rating (corn; [10]) | Corn plant response rating (corn; [11]) | Plant response rating (scale of 0 to 100 where 0 is no effect and 100 is complete control), Waterhemp (waterhemp) | Waterhemp plant response rating (waterhemp) | Plant response rating, Waterhemp (waterhemp; [8]) | Plant response rating, Waterhemp (waterhemp; [9]) | Plant response rating (scale of 0 to 100 where 0 is no effect and 100 is complete control), Crabgrass, Large (crabgrass, large [2]) | Crabgrass, Large plant response rating (crabgrass, large [2]) | Plant response rating, Crabgrass, Large (crabgrass, large [2]; [8]) | Plant response rating (scale of 0 to 100), Ragweed (ragweed) | Ragweed plant response rating (ragweed; [10]) | Ragweed plant response rating (ragweed; [11]) | Plant response rating (scale of 0 to 100), Johnsongrass (johnsongrass) | Johnsongrass plant response rating (johnsongrass; [10]) | also measured |
| --- | --- | --- | --- | --- | --- | --- | --- | --- | --- | --- | --- | --- | --- | --- | --- | --- | --- | --- | --- | --- | --- |
| CCc1cc(-c2ccc(C(F)(F)F)cc2)nn1Cc1ccnc(C(F)(F)F)c1 [Compound 110] | 90 | 30 | 35 | 60 | 45 | 10 | 5 | 5 | 100 | 100 | 100 | 100 | 35 | 40 | 60 | 75 | 35 | 35 | 95 | 15 | Foxtail, Giant plant response rating (foxtail, giant [1]; Postemergence, 500 g ai/ha, visual rating after approx. 10 days, 0 to 100 scale (0 no effect, 100 complete control)): 100; Corn plant response rating (corn; [12]): 5; Velvetleaf plant response rating (velvetleaf; [13]): 90; Velvetleaf plant response rating (velvetleaf; [14]): 100; Wheat plant response rating (wheat [3]; [13]): 80; Wheat plant response rating (wheat [3]; [14]): 100; Crabgrass, Large plant response rating (crabgrass, large [4]; [13]): 100; Crabgrass, Large plant response rating (crabgrass, large [4]; [14]): 100; Ragweed plant response rating (ragweed; [12]): 60; Johnsongrass plant response rating (johnsongrass; [11]): 30; Johnsongrass plant response rating (johnsongrass; [12]): 80; Plant response rating (scale of 0 to 100 where 0 is no effect and 100 is complete control), Foxtail, Giant (foxtail, giant [5]): 35; Foxtail, Giant plant response rating (foxtail, giant [5]): 40; Plant response rating, Foxtail, Giant (foxtail, giant [5]; [8]): 70; Plant response rating, Foxtail, Giant (foxtail, giant [5]; [9]): 60; Plant response rating, Sedge, Umbrella (sedge, umbrella): 80 |
| CCc1cc(C(=O)NOC(C)C)nn1Cc1ccnc(OC(F)F)c1 [Compound 126] | 90 | 5 | 5 | 25 | 20 | 98 | 25 | 65 | 40 | 50 | 90 | 70 | 5 | 10 | 60 | 90 | 70 | 100 | 98 | 40 | Foxtail, Giant plant response rating (foxtail, giant [1]; [15]): 90; Corn plant response rating (corn; [12]): 90; Plant response rating (scale of 0 to 100), Wheat (wheat [6]): 90; Wheat plant response rating (wheat [6]; [10]): 45; Wheat plant response rating (wheat [6]; [11]): 80; Wheat plant response rating (wheat [6]; [12]): 90; Plant response rating, Crabgrass, Large (crabgrass, large [2]; [9]): 15; Ragweed plant response rating (ragweed; [12]): 100; Johnsongrass plant response rating (johnsongrass; [11]): 85; Johnsongrass plant response rating (johnsongrass; [12]): 95; Plant response rating (scale of 0 to 100 where 0 is no effect and 100 is complete control), Foxtail, Giant (foxtail, giant [5]): 10; Foxtail, Giant plant response rating (foxtail, giant [5]): 20; Plant response rating, Foxtail, Giant (foxtail, giant [5]; [8]): 60; Plant response rating, Foxtail, Giant (foxtail, giant [5]; [9]): 20; Plant response rating, Sedge, Umbrella (sedge, umbrella): 95 |
| CCCc1cc(C(=O)NCC(F)(F)F)nn1Cc1ccnc(OC(F)F)c1 [Compound 127] | 90 | 20 | 15 | 40 | 10 | 45 | 5 | 25 | 50 | 65 | 70 | 70 | 10 | 10 | 55 | 90 | 15 | 25 | 90 | 55 | Foxtail, Giant plant response rating (foxtail, giant [1]; [15]): 90; Plant response rating, Corn (corn; 125 g ai/ha, 13 to 15 days): 65; Plant response rating (scale of 0 to 100), Wheat (wheat [6]): 85; Wheat plant response rating (wheat [6]; [10]): 5; Wheat plant response rating (wheat [6]; [11]): 40; Plant response rating, Wheat (wheat [6]; 125 g ai/ha, 13 to 15 days): 85; Plant response rating, Crabgrass, Large (crabgrass, large [2]; [9]): 20; Plant response rating, Ragweed (ragweed; 125 g ai/ha, 13 to 15 days): 60; Johnsongrass plant response rating (johnsongrass; [11]): 55; Plant response rating, Johnsongrass (johnsongrass; 125 g ai/ha, 13 to 15 days): 80; Plant response rating (scale of 0 to 100 where 0 is no effect and 100 is complete control), Foxtail, Giant (foxtail, giant [5]): 10; Foxtail, Giant plant response rating (foxtail, giant [5]): 15; Plant response rating, Foxtail, Giant (foxtail, giant [5]; [8]): 35; Plant response rating, Foxtail, Giant (foxtail, giant [5]; [9]): 15; Plant response rating, Sedge, Umbrella (sedge, umbrella): 85 |
| CCOc1cc(C(=O)NCC(F)(F)F)nn1Cc1ccnc(OC(F)F)c1 [Compound 128] | 100 | 10 | 5 | 80 | 10 | 70 | 15 | 45 | 60 | 65 | 95 | 70 | 5 | 5 | 85 | 90 | 25 | 65 | 98 | 45 | Foxtail, Giant plant response rating (foxtail, giant [1]; [15]): 100; Plant response rating, Corn (corn; 125 g ai/ha, 13 to 15 days): 65; Plant response rating (scale of 0 to 100), Wheat (wheat [6]): 85; Wheat plant response rating (wheat [6]; [10]): 20; Wheat plant response rating (wheat [6]; [11]): 30; Plant response rating, Wheat (wheat [6]; 125 g ai/ha, 13 to 15 days): 70; Plant response rating, Crabgrass, Large (crabgrass, large [2]; [9]): 30; Plant response rating, Ragweed (ragweed; 125 g ai/ha, 13 to 15 days): 85; Johnsongrass plant response rating (johnsongrass; [11]): 85; Plant response rating, Johnsongrass (johnsongrass; 125 g ai/ha, 13 to 15 days): 95; Plant response rating (scale of 0 to 100 where 0 is no effect and 100 is complete control), Foxtail, Giant (foxtail, giant [5]): 5; Foxtail, Giant plant response rating (foxtail, giant [5]): 10; Plant response rating, Foxtail, Giant (foxtail, giant [5]; [8]): 85; Plant response rating, Foxtail, Giant (foxtail, giant [5]; [9]): 25; Plant response rating, Sedge, Umbrella (sedge, umbrella): 90 |
